In the supplement of paper PMC4862054:

Legend:
Test in all cases: normalised viability (% of control), CellTiter-Blue; higher = more viable cells (about 100 = DMSO control)
Settings in all cases: incubation time: 72 h
BT-474 = system: BT-474
Outline: (§1)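 The reported quantity is normalised viability at a single listed concentration of the series. Compound in 5 µl medium was pre-dispensed into 384-well plates and 20 µl of breast cancer cell suspension was added for 72 h. A 2 h, 37 °C CellTiter-Blue step (2.5 µl) preceded fluorescence reading at 560/590 nm, and plates were normalised to vehicle (100) and a positive kill control (0).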

BT-549 = system: BT-549
Outline: as §1

CAL-120 = system: CAL-120
Outline: as §1

CAL-148 = system: CAL-148
Outline: as §1

CAL-85-1 = system: CAL-85-1
Outline: as §1

HCC1599 = system: HCC1599
Outline: as §1

HDQ-P1 = system: HDQ-P1
Outline: as §1

MDA-MB-453 = system: MDA-MB-453
Outline: as §1

SK-BR-3 = system: SK-BR-3
Outline: as §1

Structure (SMILES) | normalised viability (BT-474; 10 nM) [%] | normalised viability (BT-474; 1000 nM) [%] | normalised viability (BT-474; 10000 nM) [%] | normalised viability (BT-549; 10 nM) [%] | normalised viability (BT-549; 1000 nM) [%] | normalised viability (BT-549; 10000 nM) [%] | normalised viability (CAL-120; 10 nM) [%] | normalised viability (CAL-120; 1000 nM) [%] | normalised viability (CAL-120; 10000 nM) [%] | normalised viability (CAL-148; 3 nM) [%] | normalised viability (CAL-148; 30 nM) [%] | normalised viability (CAL-148; 100 nM) [%] | normalised viability (CAL-85-1; 3 nM) [%] | normalised viability (CAL-85-1; 30 nM) [%] | normalised viability (CAL-85-1; 100 nM) [%] | normalised viability (HCC1599; 10 nM) [%] | normalised viability (HCC1599; 1000 nM) [%] | normalised viability (HDQ-P1; 3 nM) [%] | normalised viability (MDA-MB-453; 3 nM) [%] | normalised viability (SK-BR-3; 1000 nM) [%] | further results
Cc1c(CN2CCN(C(=O)[C@H](C)O)CC2)sc2c(N3CCOCC3)nc(-c3cnc(N)nc3)nc12 [GDC-0980] | 115 | 22.1 | 12.3 | 88.7 | 33.3 | 13.6 | 103 | 24.1 | 13.7 | 100 | 94.5 | 87.6 | 102 | 83.3 | 89.2 | 95 | 39.7 | 91.9 | 116 | 15.9 | normalised viability (HCC1599; 10000 nM): 35.3%; normalised viability (HDQ-P1; 30 nM): 84.3%; normalised viability (HDQ-P1; 100 nM): 70.8%; normalised viability (MDA-MB-453; 30 nM): 77.8%; normalised viability (MDA-MB-453; 100 nM): 56.1%; normalised viability (SK-BR-3; 10 nM): 102%; normalised viability (SK-BR-3; 10000 nM): 9.04%
CO[C@@H](C(=O)N1Cc2[nH]nc(NC(=O)c3ccc(N4CCN(C)CC4)cc3)c2C1)c1ccccc1 [Danusertib] | 105 | 88.3 | 96.5 | 97.9 | 64.3 | 16.2 | 80.7 | 46 | 8.24 | 92.5 | 85.5 | 29.7 | 85.8 | 82.8 | 76.2 | 98.4 | 74.7 | 89.9 | 101 | 73.5 | normalised viability (HCC1599; 10000 nM): 73.1%; normalised viability (HDQ-P1; 30 nM): 90.7%; normalised viability (HDQ-P1; 100 nM): 72.4%; normalised viability (MDA-MB-453; 30 nM): 62.1%; normalised viability (MDA-MB-453; 100 nM): 47.9%; normalised viability (SK-BR-3; 10 nM): 81%; normalised viability (SK-BR-3; 10000 nM): 77%
O=C(Nc1c[nH]nc1-c1nc2ccc(CN3CCOCC3)cc2[nH]1)NC1CC1 [AT9283] | 111 | 78.8 | 7.58 | 95.8 | 46.7 | 4.31 | 84.9 | 22.1 | 6.61 | 80 | 69 | 31.8 | 89.8 | 72.8 | 78.6 | 102 | 72.5 | 113 | 99.2 | 40.3 | normalised viability (HCC1599; 10000 nM): 11.9%; normalised viability (HDQ-P1; 30 nM): 97.3%; normalised viability (HDQ-P1; 100 nM): 81.2%; normalised viability (MDA-MB-453; 30 nM): 60.1%; normalised viability (MDA-MB-453; 100 nM): 54.7%; normalised viability (SK-BR-3; 10 nM): 93.9%; normalised viability (SK-BR-3; 10000 nM): 6.9%
C[C@]12C=CC(=O)C=C1CC[C@@H]1[C@@H]2[C@@H](O)C[C@@]2(C)[C@H]1CC[C@]2(O)C(=O)CO [Prednisolone] | 125 | 98.8 | 100 | 111 | 92.2 | 105 | 87.5 | 73.7 | 86.8 | 93.8 | 118 | 107 | 101 | 105 | 119 | 111 | 92.2 | 112 | 107 | 101 | normalised viability (HCC1599; 10000 nM): 84.9%; normalised viability (HDQ-P1; 30 nM): 124%; normalised viability (HDQ-P1; 100 nM): 108%; normalised viability (MDA-MB-453; 30 nM): 106%; normalised viability (MDA-MB-453; 100 nM): 95.5%; normalised viability (SK-BR-3; 10 nM): 114%; normalised viability (SK-BR-3; 10000 nM): 89.3%
Cc1cccc(-c2nn3c(c2-c2ccnc4ccc(C(N)=O)cc24)CCC3)n1 | – | 130 | – | – | 109 | – | – | 106 | – | 95.2 | – | – | 94.2 | – | – | – | 96.8 | 117 | 108 | 103 | normalised viability (BT-474; 1 nM): 120%; normalised viability (BT-474; 100 nM): 110%; normalised viability (BT-549; 1 nM): 93.8%; normalised viability (BT-549; 100 nM): 98.3%; normalised viability (CAL-120; 1 nM): 97.9%; normalised viability (CAL-120; 100 nM): 92.8%; normalised viability (CAL-148; 0.3 nM): 93.4%; normalised viability (CAL-148; 10 nM): 92.9%; normalised viability (CAL-85-1; 0.3 nM): 99.3%; normalised viability (CAL-85-1; 10 nM): 101%; normalised viability (HCC1599; 1 nM): 86.8%; normalised viability (HCC1599; 100 nM): 91.6%; normalised viability (HDQ-P1; 0.3 nM): 120%; normalised viability (HDQ-P1; 10 nM): 134%; normalised viability (MDA-MB-453; 0.3 nM): 122%; normalised viability (MDA-MB-453; 10 nM): 97.2%; normalised viability (SK-BR-3; 1 nM): 116%; normalised viability (SK-BR-3; 100 nM): 101%
CC[C@@]1(O)C(=O)OCc2c1cc1n(c2=O)Cc2cc3c(CN(C)C)c(O)ccc3nc2-1 [Topotecan] | – | 77.9 | – | – | 62.9 | – | – | 32.1 | – | 111 | – | – | 85.2 | – | – | – | 64 | 105 | 107 | 24.8 | normalised viability (BT-474; 1 nM): 127%; normalised viability (BT-474; 100 nM): 112%; normalised viability (BT-549; 1 nM): 85.9%; normalised viability (BT-549; 100 nM): 75.3%; normalised viability (CAL-120; 1 nM): 86.2%; normalised viability (CAL-120; 100 nM): 54.8%; normalised viability (CAL-148; 0.3 nM): 84.5%; normalised viability (CAL-148; 10 nM): 96.5%; normalised viability (CAL-85-1; 0.3 nM): 93.2%; normalised viability (CAL-85-1; 10 nM): 96.9%; normalised viability (HCC1599; 1 nM): 91.5%; normalised viability (HCC1599; 100 nM): 82.3%; normalised viability (HDQ-P1; 0.3 nM): 112%; normalised viability (HDQ-P1; 10 nM): 105%; normalised viability (MDA-MB-453; 0.3 nM): 103%; normalised viability (MDA-MB-453; 10 nM): 102%; normalised viability (SK-BR-3; 1 nM): 105%; normalised viability (SK-BR-3; 100 nM): 48.7%
CS(=O)(=O)N1CCN(Cc2cc3nc(-c4cccc5[nH]ncc45)nc(N4CCOCC4)c3s2)CC1 [GDC-0941] | 109 | 41.3 | 11 | 85.6 | 60.9 | 14.1 | 89.6 | 53.7 | 20.8 | 82.4 | 85.8 | 83.2 | – | 77.7 | 83.5 | 96.8 | 55 | 93.6 | 109 | 24.1 | normalised viability (HCC1599; 10000 nM): 28%; normalised viability (HDQ-P1; 30 nM): 93.8%; normalised viability (HDQ-P1; 100 nM): 69.3%; normalised viability (MDA-MB-453; 30 nM): 85.1%; normalised viability (MDA-MB-453; 100 nM): 76.2%; normalised viability (SK-BR-3; 10 nM): 92.3%; normalised viability (SK-BR-3; 10000 nM): 8.8%
O=S(=O)(c1cccc2cnccc12)N1CCCNCC1 [Fasudil] | 112 | 112 | 126 | 93.3 | 95.2 | 107 | 87.9 | 84.4 | 92 | 81 | 90.1 | 90.2 | 96.6 | 90.4 | 93.3 | 99.9 | 102 | 111 | 112 | 95.7 | normalised viability (HCC1599; 10000 nM): 117%; normalised viability (HDQ-P1; 30 nM): 99%; normalised viability (HDQ-P1; 100 nM): 117%; normalised viability (MDA-MB-453; 30 nM): 116%; normalised viability (MDA-MB-453; 100 nM): 109%; normalised viability (SK-BR-3; 10 nM): 94.7%; normalised viability (SK-BR-3; 10000 nM): 109%
COc1ccc(-c2cc3c(C)nc(N)nc3n([C@H]3CC[C@H](OCCO)CC3)c2=O)cn1 | 91.8 | 14.1 | 0.59 | 86.3 | 19.1 | 6.84 | 107 | 21 | 11.3 | 87.6 | 93 | 78.6 | 102 | 89.7 | 84.5 | 115 | 35.1 | 76.7 | 103 | 10.6 | normalised viability (HCC1599; 10000 nM): 28.2%; normalised viability (HDQ-P1; 30 nM): 81.6%; normalised viability (HDQ-P1; 100 nM): 39%; normalised viability (MDA-MB-453; 30 nM): 66.5%; normalised viability (MDA-MB-453; 100 nM): 48.5%; normalised viability (SK-BR-3; 10 nM): 82.6%; normalised viability (SK-BR-3; 10000 nM): 6.34%
